Experimental data as given in patent publication EP0247507A2, “Composition for transdermal therapeutical systems of high-ceiling diuretics, and process for producing it” (priority 1986, dated 1987).

Tested on: Ratte
Test: Salidiuretic effect in the rat (urine volume, Na, K, Cl excretion) after percutaneous (TTS) or oral administration
Format: in vivo
Excerpt: Die folgenden Beispiele sollen die Erfindung erläutern. Die Zusammensetzungen wurden durch Mischen der Wirkstoffe mit der Grundlage in einem Rührwerk mit eingebautem Homogenisator erhalten. Als transdermale therapeutische Systeme wurden aus dem deutschen Gebrauchsmuster 84 07 036 bekannte Pflasterpackungen verwendet.

[1] = Furosemid 5 mg/rat p.o. (suspended in 2 % aqueous starch solution), collection period 1 - 5 h, n = 4
[2] = Furosemid 5 mg/rat p.o. (suspended in 2 % aqueous starch solution), collection period 1 - 24 h, n = 4
[3] = Furosemid 5 mg/rat p.o. (suspended in 2 % aqueous starch solution), collection period 6 - 24 h, n = 4
[4] = Piretanid 20 mg/rat p.o. (suspended in 2 % aqueous starch solution), collection period 1 - 5 h, n = 2
[5] = Piretanid 20 mg/rat p.o. (suspended in 2 % aqueous starch solution), collection period 1 - 24 h, n = 2
[6] = Piretanid 20 mg/rat p.o. (suspended in 2 % aqueous starch solution), collection period 6 - 24 h, n = 2

NS(=O)(=O)c1cc(C(=O)O)c(NCc2ccco2)cc1Cl [Furosemid, 4-Chlor-N-furfuryl-5-sulfamoylanthranilsäure]
Chlorid [1]: 6.10 ± 0.62 mmol/kg | Kalium [1]: 1.40 ± 0.16 mmol/kg | Natrium [1]: 4.81 ± 0.75 mmol/kg | Urin [1]: 47.8 ± 3.5 mL/kg | Chlorid [2]: 6.59 ± 0.61 mmol/kg | Kalium [2]: 3.88 ± 0.88 mmol/kg | Natrium [2]: 6.03 ± 0.75 mmol/kg | Urin [2]: 59.7 ± 6.2 mL/kg | Chlorid [3]: 0.49 ± 0.11 mmol/kg | Kalium [3]: 2.48 ± 0.79 mmol/kg | Natrium [3]: 1.22 ± 0.21 mmol/kg | Urin [3]: 11.9 ± 3.6 mL/kg

NS(=O)(=O)c1cc(C(=O)O)cc(N2CCCC2)c1Oc1ccccc1 [Piretanid, 4-Phenoxy-3-(1-pyrrolidinyl)-5-sulfamoylbenzoesäure]
Chlorid [4]: 8.36 mmol/kg | Kalium [4]: 1.92 mmol/kg | Natrium [4]: 7.07 mmol/kg | Urin [4]: 65.0 mL/kg | Chlorid [5]: 11.36 mmol/kg | Kalium [5]: 11.67 mmol/kg | Natrium [5]: 11.78 mmol/kg | Urin [5]: 112.1 mL/kg | Chlorid [6]: 3.00 mmol/kg | Kalium [6]: 9.75 mmol/kg | Natrium [6]: 4.71 mmol/kg | Urin [6]: 47.1 mL/kg
